# Laboratory results published in ChEMBL document CHEMBL4020748, “Benzoxazolinone aryl sulfonamides as potent, selective Nav1.7 inhibitors with in vivo efficacy in a preclinical pain model” (Bioorg Med Chem Lett, 2017).
# Active and inactive are the calls of the source. The rule behind the calls is not given here.
# Tests used:
# [1] = Selectivity ratio of IC50 for human Nav1.5alpha expressed in HEK293 cells to human Nav1.7alpha expressed in HEK293 cells
# [2] = test system: Rattus norvegicus; test: Unbound plasma clearance in Wistar Hannover rat at 2 mg/kg, iv; format: ADME, organism-based; settings: in vivo
# [3] = Half life in Wistar Hannover rat at 2 mg/kg, iv; format: ADME, organism-based; settings: in vivo
# [4] = Oral bioavailability in Wistar Hannover rat at 10 mg/kg; format: ADME, organism-based; settings: in vivo
# [5] = Apparent permeability of the compound; format: physicochemical; settings: not told
# [6] = target: T1, Sodium channel protein type 9 subunit alpha (Homo sapiens, UniProt Q15858); test: Inhibition of 50% inactivated human Nav1.7alpha expressed in HEK293 cells incubated for 5 mins measured at 10 secs interval by PatchXpress automated electrophysiology method; format: cell-based
# T1 sequence (Q15858 whole entry): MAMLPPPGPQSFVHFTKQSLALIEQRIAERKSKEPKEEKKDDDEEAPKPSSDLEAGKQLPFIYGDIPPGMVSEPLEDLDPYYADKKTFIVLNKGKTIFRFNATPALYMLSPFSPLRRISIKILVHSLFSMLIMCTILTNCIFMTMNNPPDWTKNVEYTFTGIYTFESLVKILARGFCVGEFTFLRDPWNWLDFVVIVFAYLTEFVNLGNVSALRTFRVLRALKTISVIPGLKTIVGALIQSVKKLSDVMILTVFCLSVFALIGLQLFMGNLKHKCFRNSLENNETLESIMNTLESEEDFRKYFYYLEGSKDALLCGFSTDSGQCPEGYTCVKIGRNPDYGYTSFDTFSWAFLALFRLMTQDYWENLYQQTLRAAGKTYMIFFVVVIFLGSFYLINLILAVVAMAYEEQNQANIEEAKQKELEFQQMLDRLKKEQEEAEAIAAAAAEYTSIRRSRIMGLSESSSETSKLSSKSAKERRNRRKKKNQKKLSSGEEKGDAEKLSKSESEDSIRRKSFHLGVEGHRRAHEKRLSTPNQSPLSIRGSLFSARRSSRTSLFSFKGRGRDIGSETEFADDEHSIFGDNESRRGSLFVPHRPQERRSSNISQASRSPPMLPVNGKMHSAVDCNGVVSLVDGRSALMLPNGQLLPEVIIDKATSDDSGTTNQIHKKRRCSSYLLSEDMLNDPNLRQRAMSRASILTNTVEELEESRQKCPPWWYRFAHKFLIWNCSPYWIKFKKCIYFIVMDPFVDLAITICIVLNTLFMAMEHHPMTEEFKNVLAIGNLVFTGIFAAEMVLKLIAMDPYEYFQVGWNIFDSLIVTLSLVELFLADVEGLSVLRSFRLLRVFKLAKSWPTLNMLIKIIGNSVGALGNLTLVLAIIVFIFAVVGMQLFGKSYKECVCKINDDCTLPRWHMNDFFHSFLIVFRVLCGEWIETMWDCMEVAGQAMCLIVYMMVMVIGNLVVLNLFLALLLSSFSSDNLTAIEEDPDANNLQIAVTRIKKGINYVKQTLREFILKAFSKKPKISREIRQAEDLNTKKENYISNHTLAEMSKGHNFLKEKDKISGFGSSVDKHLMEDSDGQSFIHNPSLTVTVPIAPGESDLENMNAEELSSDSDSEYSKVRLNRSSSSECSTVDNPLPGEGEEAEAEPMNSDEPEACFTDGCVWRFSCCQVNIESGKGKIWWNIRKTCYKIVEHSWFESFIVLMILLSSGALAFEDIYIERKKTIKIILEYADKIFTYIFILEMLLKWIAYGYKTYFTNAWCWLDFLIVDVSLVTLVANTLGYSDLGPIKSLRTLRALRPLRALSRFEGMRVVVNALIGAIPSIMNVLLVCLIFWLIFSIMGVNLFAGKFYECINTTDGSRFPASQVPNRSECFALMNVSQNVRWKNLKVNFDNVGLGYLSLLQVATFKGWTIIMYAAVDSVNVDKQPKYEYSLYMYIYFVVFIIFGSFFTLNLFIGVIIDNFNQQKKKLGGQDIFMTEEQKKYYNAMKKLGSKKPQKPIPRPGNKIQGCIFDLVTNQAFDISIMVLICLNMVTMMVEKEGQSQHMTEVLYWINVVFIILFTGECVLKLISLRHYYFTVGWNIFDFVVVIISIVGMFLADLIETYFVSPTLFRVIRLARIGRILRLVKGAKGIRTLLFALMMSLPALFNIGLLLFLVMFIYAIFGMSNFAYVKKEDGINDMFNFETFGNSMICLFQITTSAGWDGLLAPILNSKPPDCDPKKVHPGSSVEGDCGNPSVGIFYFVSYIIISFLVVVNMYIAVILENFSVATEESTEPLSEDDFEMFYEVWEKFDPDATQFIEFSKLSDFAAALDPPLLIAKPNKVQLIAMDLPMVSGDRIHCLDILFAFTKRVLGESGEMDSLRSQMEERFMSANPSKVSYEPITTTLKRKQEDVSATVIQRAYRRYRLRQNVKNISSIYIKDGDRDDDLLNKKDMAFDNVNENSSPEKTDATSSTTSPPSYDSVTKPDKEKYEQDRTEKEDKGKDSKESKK
# [7] = test system: Mus musculus; test: Analgesic activity in C57BL/6 mouse assessed as reduction in formalin-induced nociceptive behavior at 100 mg/kg, sc pretreated for 90 mins followed by formalin challenge measured after 20 to 35 mins; format: functional, organism-based
# [8] = Fraction unbound in C57BL/6 mouse plasma at 100 mg/kg, sc; format: ADME, organism-based
# [9] = test system: Mus musculus; test: Analgesic activity in C57BL/6 mouse assessed as unbound concentration required for 50% reduction in formalin-induced nociceptive behavior at 100 mg/kg, sc pretreated for 90 mins followed by formalin challenge measured after 20 to 35 mins; format: functional
# [10] = target: T2, Sodium channel protein type 9 subunit alpha (Mus musculus, UniProt Q62205); test: Inhibition of 50% inactivated mouse Nav1.7alpha incubated for 5 mins measured at 10 secs interval by PatchXpress automated electrophysiology method
# T2 sequence (Q62205 whole entry): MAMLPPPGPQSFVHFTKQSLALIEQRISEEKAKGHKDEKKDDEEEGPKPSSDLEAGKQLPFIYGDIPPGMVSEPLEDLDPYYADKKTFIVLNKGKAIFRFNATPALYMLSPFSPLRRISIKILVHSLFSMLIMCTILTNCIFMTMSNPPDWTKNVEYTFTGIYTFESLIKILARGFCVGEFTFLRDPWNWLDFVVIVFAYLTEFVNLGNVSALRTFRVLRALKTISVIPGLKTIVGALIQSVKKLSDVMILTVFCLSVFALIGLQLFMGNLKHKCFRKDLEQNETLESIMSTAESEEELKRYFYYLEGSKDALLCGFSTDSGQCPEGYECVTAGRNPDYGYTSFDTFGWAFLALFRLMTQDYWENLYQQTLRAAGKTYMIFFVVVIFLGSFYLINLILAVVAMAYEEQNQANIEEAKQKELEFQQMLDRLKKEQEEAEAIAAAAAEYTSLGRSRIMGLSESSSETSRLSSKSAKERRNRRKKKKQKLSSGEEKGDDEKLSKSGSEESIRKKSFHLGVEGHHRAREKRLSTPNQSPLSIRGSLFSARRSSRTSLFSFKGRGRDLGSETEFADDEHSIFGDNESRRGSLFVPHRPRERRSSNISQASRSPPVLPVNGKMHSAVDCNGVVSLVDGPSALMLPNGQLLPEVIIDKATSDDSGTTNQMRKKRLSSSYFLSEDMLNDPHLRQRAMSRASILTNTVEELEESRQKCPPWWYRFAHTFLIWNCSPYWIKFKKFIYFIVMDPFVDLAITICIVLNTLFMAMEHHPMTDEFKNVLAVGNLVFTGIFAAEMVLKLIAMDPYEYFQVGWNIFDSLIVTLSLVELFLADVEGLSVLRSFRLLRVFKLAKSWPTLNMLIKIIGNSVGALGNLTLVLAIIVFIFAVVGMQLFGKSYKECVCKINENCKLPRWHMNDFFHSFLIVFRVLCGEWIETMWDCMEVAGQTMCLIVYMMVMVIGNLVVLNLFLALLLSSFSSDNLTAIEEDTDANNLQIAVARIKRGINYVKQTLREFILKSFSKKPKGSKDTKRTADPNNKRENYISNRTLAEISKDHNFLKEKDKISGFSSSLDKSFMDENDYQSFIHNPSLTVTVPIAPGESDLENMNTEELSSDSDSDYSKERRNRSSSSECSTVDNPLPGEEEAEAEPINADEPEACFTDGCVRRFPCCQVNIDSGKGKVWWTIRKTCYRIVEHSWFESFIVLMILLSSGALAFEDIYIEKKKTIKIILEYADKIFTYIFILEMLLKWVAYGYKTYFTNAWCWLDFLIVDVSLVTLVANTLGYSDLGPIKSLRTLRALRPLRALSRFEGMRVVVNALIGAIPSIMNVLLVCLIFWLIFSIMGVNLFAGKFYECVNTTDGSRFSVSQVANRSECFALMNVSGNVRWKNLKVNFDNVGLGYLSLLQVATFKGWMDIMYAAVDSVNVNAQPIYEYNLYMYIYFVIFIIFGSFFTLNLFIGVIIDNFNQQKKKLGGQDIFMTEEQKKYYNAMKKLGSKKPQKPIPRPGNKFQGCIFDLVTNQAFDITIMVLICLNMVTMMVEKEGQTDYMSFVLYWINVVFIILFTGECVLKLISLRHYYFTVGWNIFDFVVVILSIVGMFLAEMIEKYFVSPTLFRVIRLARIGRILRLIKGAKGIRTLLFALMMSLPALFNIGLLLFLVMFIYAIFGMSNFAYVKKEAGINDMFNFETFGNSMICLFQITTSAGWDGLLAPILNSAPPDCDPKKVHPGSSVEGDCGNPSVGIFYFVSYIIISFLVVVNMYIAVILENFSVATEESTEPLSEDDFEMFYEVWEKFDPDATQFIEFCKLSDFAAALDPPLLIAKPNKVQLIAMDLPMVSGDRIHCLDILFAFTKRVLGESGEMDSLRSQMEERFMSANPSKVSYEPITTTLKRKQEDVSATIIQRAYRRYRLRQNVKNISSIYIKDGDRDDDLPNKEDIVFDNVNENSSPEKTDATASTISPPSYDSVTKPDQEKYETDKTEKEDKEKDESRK
# [11] = Ratio of fIC50 for analgesic activity in formalin-induced nociceptive C57BL/6 mouse model assessed as reduction in nociceptive behavior to IC50 for 50% inactivated mouse Nav1.7alpha
# [12] = target: Sodium channel protein type 5 subunit alpha (Homo sapiens, UniProt Q14524); test: Inhibition of 50% inactivated human Nav1.5alpha expressed in HEK293 cells incubated for 5 mins measured at 10 secs interval by PatchXpress automated electrophysiology method; format: ADME, cell-based
# [13] = Ratio of drug level in brain to plasma in rat; format: ADME
# [14] = target: Voltage-dependent L-type calcium channel subunit alpha-1C (Homo sapiens, UniProt Q13936); test: Activity at Cav1.2 (unknown origin)
# [15] = target: T1, Sodium channel protein type 9 subunit alpha; test: Inhibition of NaV1.7 channel in human DRG neurons assessed as reduction of TTX-sensitive current by whole cell patch clamp assay
# [16] = target: T2, Sodium channel protein type 9 subunit alpha; test: Inhibition of NaV1.7 channel in mouse DRG neurons assessed as reduction of TTX-sensitive current by whole cell patch clamp assay
# [17] = target: Sodium channel protein type 9 subunit alpha (Rattus norvegicus, UniProt O08562); test: Inhibition of NaV1.7 channel in rat DRG neurons assessed as reduction of TTX-sensitive sodium current by whole cell patch clamp assay
# [18] = target: T3, Nuclear receptor subfamily 1 group I member 2 (Homo sapiens, UniProt O75469); test: Activity at PXR (unknown origin); format: ADME
# T3 sequence (O75469 whole entry): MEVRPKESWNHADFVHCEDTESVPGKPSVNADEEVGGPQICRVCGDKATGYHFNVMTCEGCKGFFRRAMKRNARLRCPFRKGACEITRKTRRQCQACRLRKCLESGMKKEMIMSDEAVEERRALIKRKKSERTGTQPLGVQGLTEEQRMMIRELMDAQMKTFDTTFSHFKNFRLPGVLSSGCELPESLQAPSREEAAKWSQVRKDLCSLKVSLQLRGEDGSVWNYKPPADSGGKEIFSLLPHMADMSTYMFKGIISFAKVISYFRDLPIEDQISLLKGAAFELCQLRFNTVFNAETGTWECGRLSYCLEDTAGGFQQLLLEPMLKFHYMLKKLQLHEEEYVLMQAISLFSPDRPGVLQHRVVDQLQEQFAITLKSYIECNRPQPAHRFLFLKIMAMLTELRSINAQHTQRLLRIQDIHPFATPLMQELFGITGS
# [19] = target: Voltage-gated inwardly rectifying potassium channel KCNH2 (Homo sapiens, UniProt Q12809); test: Activity at human ERG
# Chain of Voltage-gated inwardly rectifying potassium channel KCNH2 (Q12809 whole entry): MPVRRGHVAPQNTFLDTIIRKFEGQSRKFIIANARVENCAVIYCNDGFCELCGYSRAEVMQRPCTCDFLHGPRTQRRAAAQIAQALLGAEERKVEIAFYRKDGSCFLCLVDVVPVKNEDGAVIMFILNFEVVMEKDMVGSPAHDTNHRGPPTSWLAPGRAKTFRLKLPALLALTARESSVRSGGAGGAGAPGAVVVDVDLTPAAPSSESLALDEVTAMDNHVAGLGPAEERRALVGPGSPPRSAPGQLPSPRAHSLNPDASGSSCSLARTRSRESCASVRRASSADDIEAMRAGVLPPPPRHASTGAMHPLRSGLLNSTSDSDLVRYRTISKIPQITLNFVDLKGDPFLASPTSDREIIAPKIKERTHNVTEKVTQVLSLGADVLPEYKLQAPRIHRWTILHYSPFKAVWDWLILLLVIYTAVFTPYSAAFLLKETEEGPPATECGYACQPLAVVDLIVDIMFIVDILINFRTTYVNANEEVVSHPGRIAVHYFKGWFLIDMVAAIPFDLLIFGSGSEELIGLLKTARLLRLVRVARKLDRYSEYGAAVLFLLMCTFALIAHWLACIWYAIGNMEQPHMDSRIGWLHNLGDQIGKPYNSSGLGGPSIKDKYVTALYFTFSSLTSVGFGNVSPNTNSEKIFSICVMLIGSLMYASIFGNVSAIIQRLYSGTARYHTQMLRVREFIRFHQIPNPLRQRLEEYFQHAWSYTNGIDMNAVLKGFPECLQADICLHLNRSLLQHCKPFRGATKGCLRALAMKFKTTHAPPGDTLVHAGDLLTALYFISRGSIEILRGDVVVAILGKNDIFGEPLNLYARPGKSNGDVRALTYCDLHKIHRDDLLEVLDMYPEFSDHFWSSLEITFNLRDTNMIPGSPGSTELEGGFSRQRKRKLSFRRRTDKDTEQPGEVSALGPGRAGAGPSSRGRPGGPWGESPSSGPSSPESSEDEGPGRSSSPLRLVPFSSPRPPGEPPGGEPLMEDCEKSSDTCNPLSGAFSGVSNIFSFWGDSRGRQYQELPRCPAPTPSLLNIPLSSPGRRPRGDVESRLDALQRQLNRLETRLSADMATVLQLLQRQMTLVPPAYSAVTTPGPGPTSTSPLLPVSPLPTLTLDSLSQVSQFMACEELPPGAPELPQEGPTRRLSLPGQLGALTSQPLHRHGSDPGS
# [20] = Ratio of drug level in CSF to plasma in rat; format: ADME
# [21] = Fraction unbound in Wistar Hannover rat plasma; format: ADME, cell-free
# [22] = test system: Mus musculus; test: Analgesic activity in C57BL/6 mouse assessed as reduction in formalin-induced nociceptive behavior at 100 mg/kg, sc pretreated for 90 mins followed by formalin challenge measured up to 5 mins; format: functional, organism-based
# [23] = Activity at CYP450 (unknown origin); format: ADME; settings: human
# [24] = target: Sodium channel protein type 2 subunit alpha (Homo sapiens, UniProt Q99250); test: Inhibition of Nav1.2 (unknown origin)
# [25] = test system: Mus musculus; test: Analgesic activity in C57BL/6 mouse assessed as reduction in formalin-induced nociceptive behavior administered subcutaneously pretreated for 90 mins followed by formalin challenge measured up to 30 mins; format: functional
structure (smiles),measurement,setting,value
C[C@H](c1ccccc1CN)n1c(=O)oc2cc(S(=O)(=O)Nc3cccc(F)n3)c(F)cc21,Ratio IC50,[1],850
same,CL free,[2],170 mL/min/kg
same,half-life,[3],3 h
same,bioavailability,[4],50%
same,Papp,[5],4 ×10⁻⁶ cm/s
same,IC50,[6],0.039 µM
same,IC50,[7],7.4 µM
same,fraction unbound,[8],0.145
same,fIC50,[9],1.1 µM
same,IC50,[10],0.011 µM
same,Ratio,[11],100
C[C@H](c1cccc2c1CNCC2)n1c(=O)oc2cc(S(=O)(=O)Nc3cccc(F)n3)c(F)cc21,Ratio IC50,[1],210
same,CL free,[2],300 mL/min/kg
same,half-life,[3],1.9 h
same,bioavailability,[4],30%
same,Papp,[5],2.5 ×10⁻⁶ cm/s
same,IC50,[6],0.15 µM
O=S(=O)(Nc1ncns1)c1ccc2c(cnn2Cc2ccccc2)c1,Ratio IC50,[1],6
C[C@H](c1cccc2c1CNCC2)n1c(=O)oc2cc(S(=O)(=O)Nc3ccc(F)cn3)c(F)cc21,Ratio IC50,[1],108
O=C1COc2cc(S(=O)(=O)Nc3ncns3)ccc2N1Cc1ccccc1,Ratio IC50,[1],>37
same,IC50,[12],> 30 µM
same,IC50,[6],0.815 µM
C[C@H](c1ccccc1)n1c(=O)oc2cc(S(=O)(=O)Nc3ncns3)ccc21,Ratio IC50,[1],287
C[C@H](c1cccc2c1CNCC2)n1c(=O)oc2cc(S(=O)(=O)Nc3cc(Cl)ccn3)c(F)cc21,Ratio IC50,[1],88
O=c1oc2cc(S(=O)(=O)Nc3ncns3)ccc2n1Cc1cccc2c1CNCC2,Ratio IC50,[1],>158
same,IC50,[6],0.19 µM
O=c1sc2cc(S(=O)(=O)Nc3ncns3)ccc2n1Cc1ccccc1,Ratio IC50,[1],>31
same,IC50,[12],> 30 µM
same,IC50,[6],0.97 µM
O=c1oc2cc(S(=O)(=O)Nc3ncns3)ccc2n1Cc1ccccc1,Ratio IC50,[1],>62
same,IC50,[12],> 30 µM
C[C@H](c1cccc2c1CNCC2)n1c(=O)oc2cc(S(=O)(=O)Nc3ncns3)ccc21,BPR,[13],1%
same,Activity,[14],Not Active
same,Ratio IC50,[1],1381
same,IC50,[15],0.031 µM
same,IC50,[16],0.082 µM
same,IC50,[17],2.37 µM
same,Activity,[18],Not Active
same,Activity,[19],Not Active
same,Ratio,[20],0%
same,CL free,[2],360 mL/min/kg
same,fraction unbound,[21],0.133
same,half-life,[3],0.8 h
same,bioavailability,[4],2%
same,Papp,[5],< 2 ×10⁻⁶ cm/s
same,Activity,[22],Active
same,IC50,[6],0.021 µM
same,Activity,[23],Not Active
same,IC50,[24],0.029 µM
same,IC50,[7],23 µM
same,fraction unbound,[8],0.065
same,fIC50,[9],1.5 µM
same,IC50,[10],0.03 µM
same,Ratio,[11],50
same,Activity,[25],Dose-dependent effect
